# Earlier results as cited in PMC7643960 (PLoS ONE, 2020).
# System: healthy horses
# Conditions: 1% NVX-207 twice a day for seven consecutive days, eight healthy horses; cited from earlier work
smiles,measurement,value
"C=C(C)[C@@H]1CC[C@]2(C(=O)O)CC[C@]3(C)[C@H](CC[C@@H]4[C@@]5(C)CC[C@H](O)C(C)(C)[C@@H]5CC[C@]43C)[C@@H]12 [betulinic acid, reference compound]",tolerability after topical application,no compound-related local adverse effects
